Reference: US10143731B2, “Peptides and combination of peptides for use in immunotherapy against various cancers” (immatics biotechnologies GmbH, priority 2015, dated 2018)

Test system: HLA-A*24
Experiment: MHC binding assay by UV-ligand exchange and beta2m ELISA, HLA-A*24
Set-up: species or system human
Conditions: binding to HLA-A*24 ranged by peptide exchange yield (UV-ligand exchange, β2m ELISA)
Source text: MHC Binding Assays Candidate peptides for T cell based therapies according to the present invention were further tested for their MHC binding capacity (affinity). The individual peptide-MHC complexes were produced by UV-ligand exchange, where a UV-sensitive peptide is cleaved upon UV-irradiation, and exchanged with the peptide of interest as analyzed. Only peptide candidates that can effectively bind and stabilize the peptide-receptive MHC molecules prevent dissociation of the MHC complexes. To determine the yield of the exchange reaction, an ELISA was performed based on the detection of the light chain (β2m) of stabilized MHC complexes. The assay was performed as generally described in Rodenko et al. (Rodenko et al., 2006).
96 well MAXISorp plates (NUNC) were coated over night with 2 ug/ml streptavidin in PBS at room temperature, washed 4× and blocked for 1 h at 37° C. in 2% BSA containing blocking buffer. Refolded HLA-A*02:01/MLA-001 monomers served as standards, covering the range of 15-500 ng/ml. Peptide-MHC monomers of the UV-exchange reaction were diluted 100 fold in blocking buffer. Samples were incubated for 1 h at 37° C., washed four times, incubated with 2 ug/ml HRP conjugated anti-β2m for 1 h at 37° C., washed again and detected with TMB solution that is stopped with […]. Absorption was measured at 450 nm. Candidate peptides that show a high exchange yield (preferably higher than 50%, most preferred higher than 75%) are generally preferred for a generation and production of antibodies or fragments thereof, and/or T cell receptors or fragments thereof, as they show sufficient avidity to the MHC molecules and prevent dissociation of the MHC complexes.

Row | Peptide exchange | Substance
1 | ++++ (> = 75% = ++++) | 160 (VYTLDIPVL; listed as Homo sapiens) [compound 160]
2 | ++++ (> = 75% = ++++) | 161 (IYLVSIPEL; listed as Homo sapiens) [compound 161]
3 | ++++ (> = 75% = ++++) | 166 (YYVESGKLF; listed as Homo sapiens) [compound 166]
4 | ++++ (> = 75% = ++++) | 168 (KYQDILETI; listed as Homo sapiens) [compound 168]
5 | ++++ (> = 75% = ++++) | 172 (TYTTVPRVAF; listed as Homo sapiens) [compound 172]
6 | ++++ (> = 75% = ++++) | 173 (IYSWILDHF; listed as Homo sapiens) [compound 173]
7 | ++++ (> = 75% = ++++) | 175 (YYEVHKELF; listed as Homo sapiens) [compound 175]
8 | ++++ (> = 75% = ++++) | 177 (VYPWLGALL; listed as Homo sapiens) [compound 177]
9 | ++++ (> = 75% = ++++) | 179 (MYDSYWRQF; listed as Homo sapiens) [compound 179]
10 | ++++ (> = 75% = ++++) | 181 (LYLDIINLF; listed as Homo sapiens) [compound 181]
11 | ++++ (> = 75% = ++++) | 184 (VFQNFPLLF; listed as Homo sapiens) [compound 184]
12 | ++++ (> = 75% = ++++) | 186 (IFPQFLYQF; listed as Homo sapiens) [compound 186]
13 | ++++ (> = 75% = ++++) | 187 (TYLRDQHFL; listed as Homo sapiens) [compound 187]
14 | ++++ (> = 75% = ++++) | 192 (SYALLTYMI; listed as Homo sapiens) [compound 192]
15 | ++++ (> = 75% = ++++) | 193 (RFHPTPLLL; listed as Homo sapiens) [compound 193]
16 | ++++ (> = 75% = ++++) | 195 (TYSVSFPMF; listed as Homo sapiens) [compound 195]
17 | ++++ (> = 75% = ++++) | 202 (VYWDSAGAAHF; listed as Homo sapiens) [compound 202]

Row | Peptide exchange | Substance
18 | ++++ (> = 75% = ++++) | 210 (IYTMIYRNL; listed as Homo sapiens) [compound 210]
19 | ++++ (> = 75% = ++++) | 211 (YYLEVGKTLI; listed as Homo sapiens) [compound 211]
20 | ++++ (> = 75% = ++++) | 216 (QYSSVFKSL; listed as Homo sapiens) [compound 216]
21 | ++++ (> = 75% = ++++) | 217 (FFPPTRQMGLLF; listed as Homo sapiens) [compound 217]
22 | ++++ (> = 75% = ++++) | 227 (IFLDYEAGTLSF; listed as Homo sapiens) [compound 227]
23 | ++++ (> = 75% = ++++) | 228 (KYTSWYVAL; listed as Homo sapiens) [compound 228]
24 | ++++ (> = 75% = ++++) | 267 (KYMVYPQTF; listed as Homo sapiens) [compound 267]
25 | ++++ (> = 75% = ++++) | 271 (LYHDIFSRL; listed as Homo sapiens) [compound 271]
26 | ++++ (> = 75% = ++++) | 272 (QYLQDAYSF; listed as Homo sapiens) [compound 272]
27 | ++++ (> = 75% = ++++) | 274 (AYLHSHALI; listed as Homo sapiens) [compound 274]
28 | ++++ (> = 75% = ++++) | 276 (VYGFQWRHF; listed as Homo sapiens) [compound 276]
29 | ++++ (> = 75% = ++++) | 277 (VYQGHTALL; listed as Homo sapiens) [compound 277]
30 | ++++ (> = 75% = ++++) | 278 (RYISDQLFTNF; listed as Homo sapiens) [compound 278]
31 | ++++ (> = 75% = ++++) | 280 (RYPDNLKHLYL; listed as Homo sapiens) [compound 280]
32 | ++++ (> = 75% = ++++) | 282 (KFVDSTFYL; listed as Homo sapiens) [compound 282]
33 | ++++ (> = 75% = ++++) | 289 (KYPVEWAKF; listed as Homo sapiens) [compound 289]

Test system: CD8+ T cells
Experiment: In vitro T-cell priming assay (aAPCs loaded with peptide/MHC and anti-CD28, multimer staining readout)
Type: cell-based, human
Conditions: in vitro immunogenicity of HLA class I peptides
Protocol: In an aspect, the peptides are pre-screened for immunogenicity before being included in the warehouse. By way of example, and not limitation, the immunogenicity of the peptides included in the warehouse is determined by a method comprising in vitro T-cell priming through repeated stimulations of CD8+ T cells from healthy donors with artificial antigen presenting cells loaded with peptide/MHC complexes and anti-CD28 antibody.
In order to obtain information regarding the immunogenicity of the TUMAPs of the present invention, the inventors performed investigations using an in vitro T-cell priming assay based on repeated stimulations of CD8+ T cells with artificial antigen presenting cells (aAPCs) loaded with peptide/MHC complexes and anti-CD28 antibody.
In order to perform in vitro stimulations by artificial antigen presenting cells loaded with peptide-MHC complex (pMHC) and anti-CD28 antibody, the inventors first isolated CD8+ T cells from fresh HLA-A*02 leukapheresis products via positive selection using CD8 microbeads (Miltenyi Biotec, Bergisch-Gladbach, Germany) of healthy donors obtained from the University clinics Mannheim, Germany, after informed consent.
PBMCs and isolated CD8+ lymphocytes were incubated in T-cell medium (TCM) until use consisting of RPMI-Glutamax (Invitrogen, Karlsruhe, Germany) supplemented with 10% heat inactivated human AB serum (PAN-Biotech, Aidenbach, Germany), 100 U/ml Penicillin/100 μg/ml Streptomycin (Cambrex, Cologne, Germany), 1 mM sodium pyruvate (CC Pro, Oberdorla, Germany), 20 μg/ml Gentamycin (Cambrex). 2.5 ng/ml IL7 (PromoCell, Heidelberg, Germany) and 10 U/ml IL-2 (Novartis Pharma, Nürnberg, Germany) were also added to the TCM at this step.
Generation of pMHC/anti-CD28 coated beads, T-cell stimulations and readout was performed in a highly defined in vitro system using four different pMHC molecules per stimulation condition and 8 different pMHC molecules per readout condition.
The purified co-stimulatory mouse IgG2a anti human CD28 Ab 9.3 (Jung et al., 1987) was chemically biotinylated using Sulfo-N-hydroxysuccinimidobiotin as recommended by the manufacturer (Perbio, Bonn, Germany). Beads used were 5.6 μm diameter streptavidin coated polystyrene particles (Bangs Laboratories, Illinois, USA).
pMHC used for positive and negative control stimulations were A*0201/MLA-001 (peptide […] (SEQ ID NO. 303) from modified Melan-A/MART-1) and A*0201/DDX5-001 ([…] from DDX5, SEQ ID NO. 304), respectively.
800.000 beads/200 μl were coated in 96-well plates in the presence of 4×12.5 ng different biotin-pMHC, washed and 600 ng biotin anti-CD28 were added subsequently in a volume of 200 μl. Stimulations were initiated in 96-well plates by co-incubating 1×10^6 CD8+ T cells with 2×10^5 washed coated beads in 200 μl TCM supplemented with 5 ng/ml IL-12 (PromoCell) for 3 days at 37° C. Half of the medium was then exchanged by fresh TCM supplemented with 80 U/ml IL-2 and incubating was continued for 4 days at 37° C. This stimulation cycle was performed for a total of three times. For the pMHC multimer readout using 8 different pMHC molecules per condition, a two-dimensional combinatorial coding approach was used as previously described (Andersen et al., 2012) with minor modifications encompassing coupling to 5 different fluorochromes. Finally, multimeric analyses were performed by staining the cells with Live/dead near IR dye (Invitrogen, Karlsruhe, Germany), CD8-FITC antibody clone SK1 (BD, Heidelberg, Germany) and fluorescent pMHC multimers. For analysis, a BD LSRII SORP cytometer equipped with appropriate lasers and filters was used. Peptide specific cells were calculated as percentage of total CD8+ cells. Evaluation of multimeric analysis was done using the FlowJo software (Tree Star, Oregon, USA). In vitro priming of specific multimer+CD8+ lymphocytes was detected by comparing to negative control stimulations.

Row | Substance | Wells positive [%]
34 | 5 (GIVAHIQEV; listed as Homo sapiens) [compound 5] | + (<20% = +)
35 | 18 (ILLDLTDNRL; listed as Homo sapiens) [compound 18] | + (<20% = +)
36 | 23 (SLFSDEFKV; listed as Homo sapiens) [compound 23] | ++++ (> = 70% = ++++)
37 | 26 (ALQEELTEL; listed as Homo sapiens) [compound 26] | + (<20% = +)
38 | 29 (YLLDPSITL; listed as Homo sapiens) [compound 29] | + (<20% = +)
39 | 31 (TITETTVEV; listed as Homo sapiens) [compound 31] | + (<20% = +)
40 | 35 (FLLPFSTVYL; listed as Homo sapiens) [compound 35] | + (<20% = +)
41 | 90 (FLQDLEQRL; listed as Homo sapiens) [compound 90] | + (<20% = +)
42 | 141 (FLDKVLVAA; listed as Homo sapiens) [compound 141] | + (<20% = +)
43 | 149 (ILNTHITEL; listed as Homo sapiens) [compound 149] | + (<20% = +)
44 | 196 (LYIDRPLPYL; listed as Homo sapiens) [compound 196] | ++++ (> = 70% = ++++)
45 | 197 (EYSLFPGQVVI; listed as Homo sapiens) [compound 197] | + (<20% = +)
46 | 207 (AYVVFVSTL; listed as Homo sapiens) [compound 207] | + (<20% = +)
47 | 218 (YYKSTSSAF; listed as Homo sapiens) [compound 218] | + (<20% = +)
48 | 230 (KLQNIMMLL; listed as Homo sapiens) [compound 230] | ++++ (> = 70% = ++++)
49 | 268 (QYLGQIQHI; listed as Homo sapiens) [compound 268] | + (<20% = +)
50 | 269 (YFIDSTNLKTHF; listed as Homo sapiens) [compound 269] | + (<20% = +)
51 | 285 (HYPPVQVLF; listed as Homo sapiens) [compound 285] | + (<20% = +)
